US20170224819A1, “Therapeutic Combinations of a BTK Inhibitor, a PI3K Inhibitor, a JAK-2 Inhibitor, and/or a CDK 4/6 Inhibitor” (Acerta Pharma B.V., priority 2014, published 2017)
“Also recorded” adds a separate entry of the source.

Tests used:
[1] = tested on: GPVI platelet aggregation; experiment: GPVI platelet aggregation studies; type: cell-based; conditions: read-out: IC50, GPVI platelet aggregation
KPC pancreatic cancer = KPC pancreatic cancer model; type: in vivo
CLL = experiment: Clinical study of Formula (XVIII) in CLL; type: in vivo
Description: J. Med. 2013, 369, 32-42.

KrasLA2 NSCLC = experiment: KrasLA2 non-small cell lung cancer (NSCLC) model; type: in vivo
Description: FIG. 161 illustrates the dosing schema used with the KrasLA2 non-small cell lung cancer (NSCLC) model.
FIG. 162 illustrates tumor volume variation from baseline as assessed by microcomputerized tomography (microCT) in the KrasL2 NSCLC model.

[2] = tested on: orthotopic pancreatic cancer (KPC derived cells); experiment: Orthotopic pancreatic cancer model (KPC cell line implanted in C57BL/6 mice); type: in vivo; conditions: orthotopic PDA model, oral 15 mg/kg
Experimental: Cell line derived from KrasG12D; Trp53R172H; Pdxl-Cre (KPC) mice were orthotopically implantated into the head of the pancreas after 35 passages. Based on the mice background from where the cell lines were generated, 1×10^6 cells were injected in C57BL/6 mice. Throughout the experiment, animals were provided with food and water ad libitum and subjected to a 12-h dark/light cycle. Animal studies were performed in accordance with the U.S. Public Health Service “Guidelines for the Care and Use of Laboratory Animals” (IACUC). After euthanization, pancreatic tumors were dissected out, weighed and single cell suspensions were prepared for flow cytometry analysis.

[3] = tested on: KPC derived mouse pancreatic cancer cells; experiment: KPC derived pancreatic cancer cells injected into the pancreas, Formula (XVIII) and/or gemcitabine; type: in vivo; conditions: 15 mg/kg/BID orally
Experimental: In this study, KPC derived mouse pancreatic cancer cells (KrasG12D; Trp53R172H; Pdxl-Cre) were injected into the pancreases.
Single cell suspensions from tumor samples. Mouse tumor tissue was collected and stored in PBS/0.1% soybean trypsin inhibitor prior to enzymatic dissociation. Samples were finely minced with a scissors and mouse tissue was transferred into DMEM containing 1.0 mg/ml collagenase IV (Gibco), 0.1% soybean trypsin inhibitor, and 50 U/ml DNase (Roche) and incubated at 37° C. for 30 minutes with constant stirring while human tissue was digested in 2.0 mg/ml collagenase IV, 1.0 mg/ml hyluronidase, 0.1% soybean trypsin inhibitor, and 50 U/ml DNase for 45 minutes. Suspensions were filtered through a 100 micron filter and washed with FACS buffer (PBS/0.5% BSA/2.0 mM EDTA) prior to staining. Two million total cells were stained with antibodies as indicated. Intracellular detection of FoxP3 was achieved following permeabilization with BD Perm Buffer III (BD Biosciences) and eBioscience Fix/Perm respectively. Following surface staining, samples were acquired on a BD Fortessa and analyzed using FlowJo (Treestar) software.

[4] = tested on: human platelet-mediated thrombosis; experiment: In vivo human thrombus formation in the VWF HA1 mice model (laser-induced injury); conditions: pretreated human platelets
Experimental: Constitutive or aberrant activation of the BCR signaling cascade has been implicated in the propagation and maintenance of a variety of B cell malignancies. […] J. Haematol. […] In fact, both Tec and BTK play an important role in the regulation of phospholipase Cγ2 (PLCγ2) downstream of the collagen receptor glycoprotein VI (GPVI) in human platelets. […] Biotechnol.
Injury to the vessel wall of arterioles ([…] diameter) was performed using a pulsed nitrogen dye laser (440 nm, Photonic Instruments) applied through a 20× water-immersion Olympus objective (LUMPlanFl, 0.5 numerical aperature (NA)) of a Zeiss Axiotech vario microscope. […] The extent of thrombus formation was assessed for 2 minutes after injury and the area (μm^2) of coverage determined (Image IQ, Andor Technology).
The BTK inhibitor-treated human platelets were fluorescently labeled and infused continuously through a catheter inserted into the femoral artery.

canine B cell lymphoma = experiment: Veterinary clinical trial in companion dogs with lymphoma; type: in vivo
Experimental: Enrollment has completed for Arm 1 and is ongoing for Arm 2.
Intra-subject dose escalation was allowed. Six of the 11 dogs that initiated at 2.5 or 5 mg/kg once daily were escalated and completed the study with dosages of 10 mg/kg twice daily. Among all the dose cohorts, 8 dogs had shrinkage of target lesions >20%; the best tumor responses were between 45-49% reduction in the sum of target lesions in two dogs.

[5] = tested on: spontaneous pancreatic tumors (KPC mice); experiment: KPC mouse model of advanced pancreatic cancer; type: in vivo; conditions: for Tumor volume, average: N=6
Experimental: The KPC mouse model recapitulates many of the molecular, histopathologic, and clinical features of human disease (Westphalen and Olive, Cancer J. 2012, 18, 502-510). Combination therapy with gemcitabine was also evaluated in this model. Mice were enrolled after identification of spontaneously appearing tumors in the pancreas that were >100 mm^3 (as assessed by high-resolution ultrasonography).

NK cells [6] = experiment: Antibody-dependent NK cell cytokine (IFN-γ) secretion, ELISA; type: cell-based, human; conditions: 1 μM, HER18 target cells
Experimental: Cytokine secretion was determined as follows. […] NK cells from healthy donors were enriched as described above and then added to the target cells and incubated for 4 hours at 37° C. Triplicate cultures were performed on NK cells from donors. After incubation, supernatants were harvested, centrifuged briefly, and then analyzed for interferon-γ using an enzyme-linked immunosorbent assay (ELISA) (R&D Systems, Minneapolis, Minn., USA).

NK cells [7] = experiment: NK cell degranulation (CD107a externalization, flow cytometry); type: cell-based, human; conditions: 1 μM, HER18 target cells
Experimental: Lytic granule release was determined as follows. NK cells from healthy donors were enriched and cultured in the presence of target cells, monoclonal antibodies and test articles as described above. After 4 hours, the cultures were harvested and cells were pelleted, washed, and then stained for flow cytometry evaluation. Degranulation was evaluated via by flow cytometery by externalization of CD107a, a protein normally present on the inner leaflet of lytic granules, and gating on NK cells (CD3-CD16^+ lymphocytes). The percentage of CD107a positive NK cells was quantified by comparison with a negative control (isotype control, unstained cells/FMO). Control cultures (NK cells cultured without target cells, or NK, target cell co-cultures in the absence of appropriate monoclonal antibody) were also evaluated; all experiments were performed in triplicate.

CYP3A4 = CYP3A4 (Homo sapiens, UniProt P08684); experiment: In vitro CYP metabolism and CYP interaction studies; type: in vitro ADME
BTK [8] = target: T1, BTK (Mus musculus, UniProt P35991); experiment: Molecular probe assay of irreversible BTK occupancy in MDSCs of tumor bearing PDA mice; type: in vivo; conditions: 15 mg/kg BID, Day 8, 4 hours post dose (N=5)
T1 construct: MDSCs were purified from tumor bearing PDA mice; endogenous in cells; host or cells: granulocytic and monocytic MDSCs from tumour-bearing PDA mice
Description: A molecular probe assay was used to calculate the percent irreversible occupancy of total BTK.

[9] = Brain PK experiments (brain and CSF versus plasma); type: in vivo, Sprague-Dawley rats; conditions: rats, 5 or 30 mg/kg/day
Description: Two vehicle treated rats were sacrificed on each sampling day for comparison.

[10] = Study of respiratory function; conditions: rats, doses through 300 mg/kg
BTK [11] = target: BTK (Homo sapiens, UniProt Q06187); experiment: BTK target occupancy in relapsed/refractory CLL patients; conditions: at lower dosage versus ibrutinib, FIG. 144
Sequence of BTK (Homo sapiens, UniProt Q06187) (Q06187 whole entry): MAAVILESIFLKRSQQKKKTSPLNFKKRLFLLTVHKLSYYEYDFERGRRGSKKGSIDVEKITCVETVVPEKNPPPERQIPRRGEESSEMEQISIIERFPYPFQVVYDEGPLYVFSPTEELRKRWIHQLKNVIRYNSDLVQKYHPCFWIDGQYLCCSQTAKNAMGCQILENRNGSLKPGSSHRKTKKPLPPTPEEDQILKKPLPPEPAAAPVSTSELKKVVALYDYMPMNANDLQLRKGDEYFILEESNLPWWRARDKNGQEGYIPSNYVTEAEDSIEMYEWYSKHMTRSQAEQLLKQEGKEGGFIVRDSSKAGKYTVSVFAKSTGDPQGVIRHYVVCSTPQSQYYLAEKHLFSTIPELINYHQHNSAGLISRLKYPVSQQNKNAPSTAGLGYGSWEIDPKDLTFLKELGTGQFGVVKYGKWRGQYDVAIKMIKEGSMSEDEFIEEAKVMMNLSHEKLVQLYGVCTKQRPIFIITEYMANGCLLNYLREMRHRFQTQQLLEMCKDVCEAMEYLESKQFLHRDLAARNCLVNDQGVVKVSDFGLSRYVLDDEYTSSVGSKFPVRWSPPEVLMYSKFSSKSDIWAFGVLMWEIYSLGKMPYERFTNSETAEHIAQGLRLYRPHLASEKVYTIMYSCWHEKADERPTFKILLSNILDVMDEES

Sequence of CYP3A4 (P08684 whole entry): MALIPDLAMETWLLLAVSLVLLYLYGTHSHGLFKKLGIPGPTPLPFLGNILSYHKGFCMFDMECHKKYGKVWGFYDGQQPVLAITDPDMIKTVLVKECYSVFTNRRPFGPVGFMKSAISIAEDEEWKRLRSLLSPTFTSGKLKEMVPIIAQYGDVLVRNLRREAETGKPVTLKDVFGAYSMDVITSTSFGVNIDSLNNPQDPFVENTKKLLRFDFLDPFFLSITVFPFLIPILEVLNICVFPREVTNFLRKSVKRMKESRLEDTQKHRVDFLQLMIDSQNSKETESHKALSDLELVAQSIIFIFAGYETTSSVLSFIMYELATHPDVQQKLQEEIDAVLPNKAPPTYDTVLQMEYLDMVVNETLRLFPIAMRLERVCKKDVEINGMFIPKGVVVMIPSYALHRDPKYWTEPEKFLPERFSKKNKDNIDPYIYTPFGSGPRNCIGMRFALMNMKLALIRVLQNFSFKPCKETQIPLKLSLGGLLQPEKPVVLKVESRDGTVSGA
T1 sequence (P35991 whole entry): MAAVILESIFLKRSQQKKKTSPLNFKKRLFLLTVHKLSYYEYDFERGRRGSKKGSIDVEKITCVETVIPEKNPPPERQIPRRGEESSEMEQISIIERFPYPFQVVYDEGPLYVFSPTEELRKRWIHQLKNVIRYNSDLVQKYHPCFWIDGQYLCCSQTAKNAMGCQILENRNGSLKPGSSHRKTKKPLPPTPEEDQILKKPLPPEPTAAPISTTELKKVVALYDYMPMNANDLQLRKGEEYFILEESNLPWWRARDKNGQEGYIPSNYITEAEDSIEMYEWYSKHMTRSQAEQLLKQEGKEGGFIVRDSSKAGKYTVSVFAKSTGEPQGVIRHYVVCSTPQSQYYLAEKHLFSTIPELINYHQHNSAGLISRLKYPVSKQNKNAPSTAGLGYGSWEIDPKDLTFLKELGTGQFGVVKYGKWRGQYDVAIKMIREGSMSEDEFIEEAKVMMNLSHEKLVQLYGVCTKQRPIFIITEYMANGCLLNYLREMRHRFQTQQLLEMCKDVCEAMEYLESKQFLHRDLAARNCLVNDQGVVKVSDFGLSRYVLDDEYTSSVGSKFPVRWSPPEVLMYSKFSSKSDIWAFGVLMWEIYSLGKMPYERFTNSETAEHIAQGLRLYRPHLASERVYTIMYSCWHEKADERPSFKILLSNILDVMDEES

CC#CC(=O)N1CCC[C@H]1c1nc(-c2ccc(C(=O)Nc3ccccn3)cc2)c2c(N)nccn12 [Formula (XVIII), (S)-4-(8-amino-3-(1-(but-2-ynoyl)pyrrolidin-2-yl)imidazo[1,5-a]pyrazin-1-yl)-N-(pyridin-2-yl)benzamide]
IC50 [1]: 1.15 µM | immunosuppressive TAMs (CD11b+Ly6ClowF4/80+Csf1r+) in tumor tissues (KPC pancreatic cancer; FIG. 128): significantly reduced | immunosuppressive MDSCs (Gr1+Ly6CHi) in tumor tissues (KPC pancreatic cancer; FIG. 129): significantly reduced | immunosuppressive Tregs (CD4+CD25+FoxP3+) in tumor tissues (KPC pancreatic cancer; FIG. 130): significantly reduced | apoptosis (CLL; CLL patients, FIG. 157): increased | sum of the product of greatest diameters (SPD) (CLL; CLL, compared with ibrutinib, FIG. 138): decreases more rapidly | absolute lymphocyte count (ALC) (CLL; CLL, relative to ibrutinib (Byrd et al. 2013), FIG. 138): much smaller relative increase and much faster decrease | CXCL12 levels (CLL; patients treated, FIG. 158): decrease | CCL2 levels (CLL; patients treated, FIG. 159): decrease | immunosuppressive tumor associated TAMs (KrasLA2 NSCLC; FIG. 163): significant reduction | immunosuppressive tumor associated MDSCs (KrasLA2 NSCLC; FIG. 164): significant reduction | immunosuppressive tumor associated Tregs (KrasLA2 NSCLC; FIG. 165): significant reduction | Immature myeloid infiltrate (MDSCs) [2]: decreased immature myeloid infiltrate | Immunosuppressive Tregs [2]: reduced the number of immunosuppressive Tregs | Tumor associated macrophages [2]: reduced the number of tumor associated macrophages | Tumor burden [2]: significantly reduced tumor burden | Tumor burden [3]: reduction in tumor burden | Effect on human platelet-mediated thrombus formation [4]: does not interfere with thrombus formation; also recorded: no significant effect on human platelet-mediated thrombus formation | CR by investigator evaluation (canine B cell lymphoma): 0/21 | CD8+ cells in tumor tissues ([5]; 15 mg/kg BID orally): significant increase in CD8^+ cells | Immunosuppressive TAMs, MDSCs and Tregs in tumor tissues ([5]; 15 mg/kg BID orally): significantly reduced | Pancreatic cancer growth and animal survival ([5]; 15 mg/kg BID orally): substantially slowed pancreatic cancer growth and increased animal survival | Survival ([5]; day 14): 6/6 | Survival ([5]; day 28): 5/6 | Tumor volume, average ([5]; day 28, 15 mg/kg BID orally): 272 mm^3 | Tumor volume, average ([5]; predose, 15 mg/kg BID orally): 165 mm^3 | Inhibition of trastuzumab-stimulated NK cell cytokine release (NK cells [6]): no inhibitory effect | Inhibition of trastuzumab-stimulated NK cell degranulation (NK cells [7]): no inhibitory effect | CYP catalyzed loss of parent drug (CYP3A4; in vitro): metabolized by CYP3A4 | CYP drug-drug interaction potential (CYP3A4; nonclinical CYP interaction studies): very unlikely to cause clinical drug-drug interactions | Irreversible BTK occupancy in granulocytic and monocytic MDSCs (BTK [8]): Complete BTK occupancy | Levels in brain and CSF samples [9]: low but detectable levels | Respiratory function [10]: no treatment-related adverse effects | BTK target occupancy (BTK [11]): improved
